Reference: patent US9260473B2, “Bivalent multifunctional ligands targeting Aβ oligomers as treatment for Alzheimer's disease” (Virginia Commonwealth University, priority 2010, dated 2016)

Tests used:
[1] = system: AβOs; experiment: Immunocytochemistry assay of AβOs in MC65 cells (A11 antibody); format: cell-based, human; details: 10 μM, 24 hrs after removal of TC
Description: MC65 cells were treated with the indicated compounds (10 μM) immediately after the removal of TC. After 24 hrs, the cells were fixed and immunofluorescently stained for AβOs, CM/LR, and nucleus and imaged with a Leica TCS-SP2 AOBS confocal laser scanning microscope. Five areas were examined.
Immunocytochemistry assay. MC65 cells were plated onto Lab-Tee chamber slides (1×10^4 cells/well). After 24 hrs incubation at 37° C. and 5% CO2, Opti-MEM was added (with or without TC) and followed by test compounds. MC65 cells were incubated for 24 hrs. MC65 cells were rinsed 3× with PBS and incubated with Alexa 488-conjugated CTX-B (10 ug/mL) for 15 min on ice. After rinsing once with ice-cold PBS, cells were fixed for 30 min with 4% paraformaldehyde. MC65 cells were permeabilized for 30 min with 0.1% Triton X 100. Then MC65 cells were stained with A11 rabbit antibody followed by anti-rabbit Alexa 568 (1:500). Finally MC65 cells were treated with DAPI (5 ug/mL) and mounted with Vectashield Mounting Media. Cell fluorescence was analyzed by a Leica TCS-SP2 AOBS confocal laser scanning microscope equipped with blue diode, Argon, and 3 HeNe (lasers as well as a spectrophotometer based detection system with variable detector windows) using excitation lines at 355 nm, 488 nm, and 568 nm for DAPI, Alexa 488-conjugated CTX-B, and Alexa Fluor 568 donkey anti-rabbit IgG. […]

[2] = biological target: T1, Aβ42 (Homo sapiens, UniProt P05067); experiment: Aβ42 oligomerization inhibition assay (Western blot); format: biochemical; details: Aβ42 5 μM, compound 20 μM, 4 hrs at 37° C.
T1 construct: Aβ42 was obtained from American Peptide, Inc. (Sunnyvale, Calif.); purchased American Peptide, Inc. (Sunnyvale, Calif.)
Description: In order to confirm 14 can bind to AβOs, the inhibition of Aβ42 oligomerization was performed and assessed using Western blot analysis as described in literature^29 in order to investigate binding interactions of 14 with Aβ42 and the CM/LR of MC65 cells. Briefly, Aβ42 (5 μM) was incubated with or without compounds (20 μM), then samples were analyzed by Western blot using 6E10 antibody.
Aβ42 oligomerization inhibition assay. An aliquot of Aβ42 (0.045 mg) was dissolved in 20 μL of DMSO and diluted in Ham's F-12 media without phenol red (Caisson's Laboratory, Inc., Utah). […] After incubation, the samples (50 μL) were spun down at 14,000×g for 10 min. The supernatant (20 μL) was mixed with an equal part of Tricine sample buffer without reducing agents (Bio-Rad). The unaggregated Aβ42 control was not incubated at 37° C., and mixed with sample buffer (no centrifuging) and stored at −80° C. before it was electrophoresed. Samples (25 μL) were electrophoresed on a 10-20% Tris-Tricine gel, transferred to PVDF membrane, and blocked with 10% nonfat milk in PBS for 30 min. […] The proteins were visualized by Western Blot Chemiluminescence Reagent (NEN Life Science Products, Boston, Mass.).

[3] = system: MC65 cells; experiment: Cytotoxicity assay in MC65 cells (MTS, +TC/−TC); format: cell-based, human; details: 72 hrs
Source text: Protective effects of 14 on AβOs-induced cytotoxicity in MC65 cells and differentiated human neuroblastoma SH-SY5Y cells. […] To further verify whether 14 can protect cells from extracellular AβOs-induced cytotoxicity, all trans-retinoic acid differentiated human SH-SY5Y cells were employed. […] This may further indicate that while both 1 and 14 can bind to AβOs, CM/LR anchorage of 14 can increase its accessibility to intracellular target AβOs. Since CM/LR are crucial for many aspects of cell signaling and functions, 14 was further evaluated for its potential cytotoxicity in mouse spleen and natural killer (NK) cells.
Cytotoxicity assay in MC65 cells. MC65 cells were seeded in 96-well plates (4×10^4 cells/well) at 37° C., 5% CO2 for 24 hrs. The medium was removed and washed with PBS twice. Opti-MEM and test compounds were added under +TC and −TC conditions. The plates were incubated at 37° C., 5% CO2 for 72 hrs, then 20 uL CellTiter 96 AQueous One Solution (Promega, Madison, Wis.) were added to each well and the plates were incubated at 37° C., 5% CO2 for 2-4 hrs. The plates were read at 490 nm using FlexStation III plate reader (Molecular Devices). The blank with only test compounds in Opti-MEM was set up as background control for all of the tested concentrations. Each data point was averaged from six replicates and the experiments were independently repeated at least three times.

[4] = system: SH-SY5Y cells; experiment: Cytotoxicity assay in differentiated SH-SY5Y cells treated with AβOs; format: cell-based, human; details: AβOs 1 μM, 48 hrs, all of the tested concentrations
Description: Cytotoxicity assay in differentiated SH-SY5Y cells. SH-SY5Y cells were plated at 10,000 cells/well in type 1 collagen coated 96-well plates (Invitrogen) and were differentiated in Opti-MEM supplemented with 2% B-27 (Invitrogen) and 10 μM all-trans-retinoic acid for 7 days. The medium was removed and replaced with fresh maintenance medium. Freshly prepared Aβ42 oligomers in Ham's F-12 medium (1 μM) was added to cells for 48 hrs at 37° C. with or without test compounds. After treatment, 20 uL CellTiter 96 AQueous One Solution (Promega, Madison, Wis.) were added to each well and the plates were incubated at 37° C., 5% CO2 for 2-4 hrs. The plates were read at 490 nm in FlexStation III plate reader (Molecular Devices). Each data point was averaged from six replicates and the experiments were independently repeated at least three times.

[5] = system: intracellular oxidative stress; experiment: DCFH-DA antioxidation assay in MC65 cells; format: cell-based, human; details: −TC, 24 hrs
[6] = in vitro; details: human, Caco-2
Description: Assessment of permeability and P-glycoprotein using Caco-2 cell model. […] To test whether 14 has the potential to reach the brain, we determined its permeability and transport directionality using the Caco-2 model.^48 Although the Caco-2 cell monolayer model is derived from the colon rather than the brain, this model expresses efflux transporters such as P-glycoprotein which are also expressed at the BBB.
Caco-2 permeability assay. Caco-2 cells (ATCC, Manassas, Va.) were cultured in high-glucose DMEM supplemented with 10% FBS and used between passages 30-50. Caco-2 cells were plated on 12-well polyester transwell inserts ([…] pore size) (Coming #3460) at a density of 80,000 cells/cm^2 and grown to 100% confluence (21 days). Filters were rinsed in Hank's balanced salt solution (HBSS) and test compounds (10 μM) were added to either the apical (0.5 mL) or basolateral (1.5 mL) side and incubated at 37° C. with shaking (100 rpm). Samples (200 μL) were removed at 30, 60, and 120 minutes with replacement of an equal volume of the appropriate buffer containing or lacking the compounds. Samples were stored at −20° C. until analysis. After 120 minutes, lucifer yellow was added to the donor chamber, with additional sampling as above at 10, 20, and 30 minutes. Lucifer yellow was analyzed by fluorescence (excitation 450 nm, emission 528 nm) in a Synergy 2 microplate reader. […] Buffer samples (200 μL) were mixed with acetonitrile (100 μL) and acetic acid (2 μL), vortexed and centrifuged at 4° C. for 5 minutes at 12,000 ref. Supernatants (100 μL) were injected onto an Alltech Alltima HP C18 4.6×100 mm 3 μm column and eluted with 38% acetonitrile, 62% aqueous (1% acetic acid in water) at 1.0 mL/min. To improve sensitivity over UV detection, fluorescence (Waters 2475) at the excitation/emission wavelengths of 443/533 and 274/305 (nm) for 1 and 14, respectively, was also detected. Permeability was determined according to Fick's Law. Efflux transport activity was defined as a permeability directional ratio (efflux ratio) ≧2.

[7] = biological target: T2, Aβ42 monomers (Homo sapiens, UniProt P05067); experiment: Fluorescence polarization binding to Aβ42 monomers; details: compound 1 μM, 3 hrs, read-out: apparent binding constant (Kd) for Aβ42 monomers
T2 construct: The monomers, oligomers and fibrils of Aβ42 were prepared according to established protocols and confirmed by TEM
Description: (§1) FIG. 8A-C. BMAOI 14 binds to Aβ42 monomers, oligomers, and fibrils, but not BSA. A. The monomers, oligomers and fibrils of Aβ42 were prepared according to established protocols and confirmed by TEM; B. Compound 14 (1 μM) was incubated with different forms of Aβ42 at indicated concentrations for 3 hrs. Then, fluorescence polarization change of 14 was recorded and the binding affinity was calculated; C. Compound 14 was incubated with BSA as described in B and the binding affinity was calculated.
(§2) To determine the binding affinity of 14 to Aβ, we evaluated changes in fluorescence polarization values of this probe at different 14:Aβ ratios for monomeric, oligomeric, and fibrillary Aβ species, respectively. Aβ42 is chosen to evaluate the binding of probe as it is the major and most sticky amyloid peptide found in AD plaques.^1 The formation of different Aβ42 species was confirmed by transmission electron microscope (TEM) as shown in FIG. 8A. […] It appears that 14 binds to Aβ42 with micromolar affinity and slightly favors […] fibrils over monomers and oligomers.

[8] = biological target: T3, Aβ42 oligomers (Homo sapiens, UniProt P05067); experiment: Fluorescence polarization binding to Aβ42 oligomers; details: compound 1 μM, 3 hrs, read-out: apparent binding constant (Kd) for Aβ42 oligomers
T3 construct: The monomers, oligomers and fibrils of Aβ42 were prepared according to established protocols and confirmed by TEM
Description: as §1, §2

[9] = biological target: T4, Aβ42 fibrils (Homo sapiens, UniProt P05067); experiment: Fluorescence polarization binding to Aβ42 fibrils; details: compound 1 μM, 3 hrs, read-out: apparent binding constant (Kd) for Aβ42 fibrils
T4 construct: The monomers, oligomers and fibrils of Aβ42 were prepared according to established protocols and confirmed by TEM
Description: as §1, §2

[10] = biological target: T4, Aβ42 fibrils; experiment: Fluorescence emission before and after mixing with Aβ42 fibrils; format: binding; details: compound 1 μM
Description: FIG. 9. Fluorescence emission of 14 (1 μM) before and after mixing with Aβ42 fibrils.
To examine the change of fluorescence properties upon binding to Aβ42, we compared the fluorescence properties of free 14 in aqueous solution to its fluorescence properties in the presence of Aβ42 fibrils as this chemical probe will be used to detect Aβ plaques. […] A blue shift in the emission spectra of 10 nm was also observed upon association with Aβ42 fibrils.

T4 sequence (P05067 672-713 limits assumed): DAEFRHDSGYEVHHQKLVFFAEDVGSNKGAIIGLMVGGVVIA
T2 sequence (P05067 672-713 limits assumed): as above
T1 sequence (P05067 672-713 limits assumed): as above
T3 sequence (P05067 672-713 limits assumed): as above

COc1cc(C=CC(=O)C(Cc2cn(CCCCCCNC(=O)CCNC(=O)CCNC(=O)COC3CCC4(C)C(=CCC5C4CCC4(C)C(C(C)CCCC(C)C)CCC54)C3)nn2)C(=O)C=Cc2ccc(O)c(OC)c2)ccc1O (stereo not drawn) [BMAOI 14]
formation of AβOs (A11 immunocytochemistry) [1]: significantly inhibited
inhibition of oligomerization of Aβ42 [2]: inhibited the oligomerization of Aβ42
toxic effects on MC65 cell viability in the presence of TC ([3]; +TC, tested concentrations, MTS): no toxic effects
rescue of MC65 cell viability upon removal of TC ([3]; −TC, 16 μM): nearly full rescue
protective effects on MC65 cell viability upon removal of TC ([3]; −TC, MTS): protected MC65 cell survival in a dose-dependent manner
protection of SH-SY5Y cell viability from AβOs [4]: completely restored the cell viability
suppression of intracellular oxidative stress (DCFH-DA fluorescence) [5]: suppressed the intracellular oxidative stress in a dose-depndent manner
Papp A→B at 120 min, 10 µM [6]: 7.1 ×10⁻⁶ cm/s
Papp B→A at 120 min, 10 µM [6]: 4.7 ×10⁻⁶ cm/s
efflux ratio at 120 min, 10 µM [6]: 0.63
Kd [7]: 2.03 µM
Kd [8]: 2.17 µM
Kd [9]: 0.83 µM
increase of emission intensity upon binding to Aβ42 fibrils ([10]; Aβ42=5 μM, excitation 430 nm): 4.5 fold
blue shift in the emission spectra upon association with Aβ42 fibrils [10]: 10 nm
